Data taken from US20250186404A1, “METHODS OF USING A (THIAZOLYL)BENZENESULFONAMIDE DERIVATIVE” (Cyteir Therapeutics, Inc., priority 2023, published 2025).

Key:
Type in all cases: cell-based
[1] = target: T1, Human MCT3 (Homo sapiens, UniProt O95907); assay: Inhibition of 3BP import (rescue of viability) in MCT3-overexpressing INS-1 cells; details: INS-1 cells over-expressing human MCT3, rescue from LC100 3BP
T1 construct: expressed in transfected cells
T1 sequence (O95907 1-504): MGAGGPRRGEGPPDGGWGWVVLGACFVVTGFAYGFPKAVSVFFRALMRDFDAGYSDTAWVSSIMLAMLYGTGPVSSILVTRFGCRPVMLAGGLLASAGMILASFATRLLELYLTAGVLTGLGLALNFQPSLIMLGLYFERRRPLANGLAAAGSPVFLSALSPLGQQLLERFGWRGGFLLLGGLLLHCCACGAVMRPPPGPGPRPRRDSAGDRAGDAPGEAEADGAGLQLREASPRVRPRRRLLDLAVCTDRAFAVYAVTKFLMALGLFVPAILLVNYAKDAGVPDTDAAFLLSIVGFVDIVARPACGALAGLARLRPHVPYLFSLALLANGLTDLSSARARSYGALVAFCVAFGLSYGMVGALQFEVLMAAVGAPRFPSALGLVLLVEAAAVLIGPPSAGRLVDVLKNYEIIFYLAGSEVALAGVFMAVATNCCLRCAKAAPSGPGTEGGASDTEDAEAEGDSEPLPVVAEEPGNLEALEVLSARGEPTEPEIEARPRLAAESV
T1 sequence (P26453 23-388 partner): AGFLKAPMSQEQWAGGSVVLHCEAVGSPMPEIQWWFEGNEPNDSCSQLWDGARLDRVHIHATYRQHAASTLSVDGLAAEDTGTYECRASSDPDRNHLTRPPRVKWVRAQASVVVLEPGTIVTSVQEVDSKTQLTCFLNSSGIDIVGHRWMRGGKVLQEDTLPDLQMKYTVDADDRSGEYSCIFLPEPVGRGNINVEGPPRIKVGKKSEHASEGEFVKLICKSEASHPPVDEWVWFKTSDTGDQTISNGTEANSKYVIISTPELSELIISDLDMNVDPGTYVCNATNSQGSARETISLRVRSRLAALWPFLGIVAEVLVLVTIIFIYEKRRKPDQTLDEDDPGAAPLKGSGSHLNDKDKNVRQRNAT
Description: (§1) Human MCT1-4 were stably expressed in INS-1 rat pancreatic islet B-cells, which are deficient in endogenous MCT expression. 3-Bromopyruvate (3BP), a highly reactive and cytotoxic monocarboxylate, can enter the INS-1 cells via the overexpressed MCT isoform, resulting in rapid cell death. However, prevention of 3BP transport into the cell by an MCT inhibitor can prevent 3BP-mediated cell death (FIG. 16).
(§2) INS-1 cells over-expressing an MCT paralog were treated with a titration of 3BP to determine the lowest concentration that results in 100% cell killing (LC100). The INS-1 cells were then pre-treated with a titration of Compound 67A before exposure to the LC100 concentration of 3BP specific for that MCT-over-expressing cell line, and rescue of cell viability was measured (FIG. 17).

[2] = target: T2, Human MCT2 (Homo sapiens, UniProt O60669); assay: Inhibition of 3BP import (rescue of viability) in MCT2-overexpressing INS-1 cells; details: INS-1 cells over-expressing human MCT2, rescue from LC100 3BP
T2 construct: expressed in transfected cells
T2 sequence (O60669 1-478): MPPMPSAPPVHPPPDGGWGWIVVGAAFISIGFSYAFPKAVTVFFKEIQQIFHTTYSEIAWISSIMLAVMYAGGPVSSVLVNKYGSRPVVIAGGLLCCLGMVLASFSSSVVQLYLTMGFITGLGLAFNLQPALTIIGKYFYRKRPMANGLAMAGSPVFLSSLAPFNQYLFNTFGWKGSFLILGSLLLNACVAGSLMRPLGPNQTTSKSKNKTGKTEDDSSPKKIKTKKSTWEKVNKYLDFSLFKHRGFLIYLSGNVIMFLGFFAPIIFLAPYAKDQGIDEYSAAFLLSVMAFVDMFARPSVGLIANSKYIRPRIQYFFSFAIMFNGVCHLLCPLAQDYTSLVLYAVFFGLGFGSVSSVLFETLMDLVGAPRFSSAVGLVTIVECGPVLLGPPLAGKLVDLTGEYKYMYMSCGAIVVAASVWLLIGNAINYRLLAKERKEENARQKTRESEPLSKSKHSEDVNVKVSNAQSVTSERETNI
Description: as §1, §2

[3] = target: T3, Human MCT4 (Homo sapiens, UniProt O15427); assay: Inhibition of 3BP import (rescue of viability) in MCT4-overexpressing INS-1 cells; details: INS-1 cells over-expressing human MCT4, rescue from LC100 3BP
T3 construct: expressed in transfected cells
T3 sequence (O15427 2-465 limits assumed): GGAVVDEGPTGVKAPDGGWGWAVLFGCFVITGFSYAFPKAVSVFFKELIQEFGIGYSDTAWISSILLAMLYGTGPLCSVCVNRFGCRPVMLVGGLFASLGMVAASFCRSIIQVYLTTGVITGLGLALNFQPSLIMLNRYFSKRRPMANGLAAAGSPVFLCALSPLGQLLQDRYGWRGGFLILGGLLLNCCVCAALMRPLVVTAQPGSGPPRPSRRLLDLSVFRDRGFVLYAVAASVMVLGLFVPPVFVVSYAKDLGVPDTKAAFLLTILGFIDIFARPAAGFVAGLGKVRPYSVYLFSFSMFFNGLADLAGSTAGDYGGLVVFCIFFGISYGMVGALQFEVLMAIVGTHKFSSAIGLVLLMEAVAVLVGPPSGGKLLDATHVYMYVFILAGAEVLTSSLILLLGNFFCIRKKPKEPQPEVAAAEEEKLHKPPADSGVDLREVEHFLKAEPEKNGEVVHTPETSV
T3 sequence (P26453 23-388 partner): T1 sequence (P26453 23-388 partner)
Description: as §1, §2

Compound	IC50 [1] [µM]	IC50 [2] [µM]	IC50 [3] [µM]
O=C(Nc1ccccc1C(=O)O)c1cc(S(=O)(=O)c2ccccc2)ccc1Cl [BAY8002]	> 33	1 to 10	> 33
CC(C)OC(=O)Nc1ccc(-c2cnc([C@H]3CC[C@H](NC(=O)OC(C)C)CC3)s2)c(S(=O)(=O)NC(C)(C)C)c1 [Compound 67A]	10 to 33	> 33	1 to 10
AZD3965	> 33	1 to 10	> 33
